From ChEMBL document CHEMBL4806957, “Cdk8/cdk19 selective inhibitors and their use in anti-metastatic and chemopreventive methods for cancer” (2019)
Blank lines part the entries; values can stand above or below the compound they belong to. Active and inactive are the calls of the source. No cut-off for these calls is given here.

What was measured:
[1] = Solubility of compound in water at < 50 mM after 30 mins; assay type: physicochemical; details: buffer, 0.5 h
[2] = Solubility of compound in water at 10 mM after 30 mins; assay type: physicochemical; details: buffer, 0.5 h, 10000 µM
[3] = Toxicity in BALB/c mouse assessed as body weight gain at 40 mg/kg, ip administered with 5 daily doses and 2 days off and another 5 daily dosing schedule for 12 days; assay type: organism-based; details: in vivo, 288 h, time 12 day
MDA-MB-468 [4] = assay: Antitumor activity against human MDA-MB-468 cells xenografted in nude mouse assessed as reduction in tumor growth at 40 mg/kg, ip administered daily for 30 days by caliper method; assay type: functional, organism-based; details: time 30.0 day
MDA-MB-231 [5] = assay: Antitumor activity against human MDA-MB-231 cells xenografted in SCID mouse assessed as reduction in tumor growth at 40 mg/kg, ip administered as 5 daily doses; assay type: functional, organism-based
[6] = molecular target: T1, Cyclin-dependent kinase 8 (Homo sapiens, UniProt P49336); assay: Inhibition of CDK8 (unknown origin)
MDA-MB-468 [7] = assay: Growth inhibition of human MDA-MB-468 cells after 5 days by MTT assay; assay type: functional, cell-based; details: dose 0.078-10 µM, time 5.0 day
[8] = Toxicity in BALB/c mouse assessed as decrease in liver weight at 40 mg/kg, ip administered with 5 daily doses and 2 days off and another 5 daily dosing schedule for 12 days; assay type: organism-based; details: in vivo, 288 h, time 12 day
[9] = Plasma concentration in mouse at 100 mg/kg administered via gavage; assay type: ADME, organism-based; details: in vivo, po
MDA-MB-468 [10] = assay: Antitumor activity against human MDA-MB-468 cells xenografted in nude mouse assessed as non-invasive tumor growth at 40 mg/kg, ip administered daily for 30 days by H and E staining based histological analysis; assay type: functional, organism-based; details: time 30.0 day
[11] = Toxicity in BALB/c mouse assessed as decrease in spleen weight at 40 mg/kg, ip administered with 5 daily doses and 2 days off and another 5 daily dosing schedule for 12 days; assay type: organism-based; design: scale not given: the % may be the effect or the level left; details: in vivo, 288 h, time 12 day
MDA-MB-468 [12] = assay: Antitumor activity against human MDA-MB-468 cells xenografted in mouse assessed as reduction in tumor growth at 40 mg/kg, ip by caliper method; assay type: functional, organism-based
MDA-MB-231 [13] = assay: Additive antitumor activity against human MDA-MB-231 cells xenografted in SCID mouse assessed as reduction in tumor growth at 40 mg/kg, ip administered as 5 daily doses in presence of doxorubicin; assay type: functional, organism-based
[14] = Toxicity in BALB/c mouse assessed as decrease in lung weight at 40 mg/kg, ip administered with 5 daily doses and 2 days off and another 5 daily dosing schedule for 12 days; assay type: organism-based; details: in vivo, 288 h, time 12 day
[15] = Toxicity in BALB/c mouse assessed as decrease in thymus weight at 40 mg/kg, ip administered with 5 daily doses and 2 days off and another 5 daily dosing schedule for 12 days; assay type: organism-based; details: in vivo, 288 h, time 12 day
MDA-MB-468 [16] = assay: Antitumor activity against human MDA-MB-468 cells xenografted in nude mouse assessed as non-invasive tumor growth at 40 mg/kg, ip administered daily for 30 days in presence of doxorubicin by H and E staining based histological analysis; assay type: functional, organism-based; details: time 30.0 day
[17] = molecular target: T2, Catenin beta-1 (Homo sapiens) (UniProt P35222); assay: Inhibition of beta-catenin activity in human HCT116 cells assessed as reduction in TOPFlash promoter mediated luciferase expression; assay type: cell-based; details: HCT-116, dose […]
T2 sequence (whole entry): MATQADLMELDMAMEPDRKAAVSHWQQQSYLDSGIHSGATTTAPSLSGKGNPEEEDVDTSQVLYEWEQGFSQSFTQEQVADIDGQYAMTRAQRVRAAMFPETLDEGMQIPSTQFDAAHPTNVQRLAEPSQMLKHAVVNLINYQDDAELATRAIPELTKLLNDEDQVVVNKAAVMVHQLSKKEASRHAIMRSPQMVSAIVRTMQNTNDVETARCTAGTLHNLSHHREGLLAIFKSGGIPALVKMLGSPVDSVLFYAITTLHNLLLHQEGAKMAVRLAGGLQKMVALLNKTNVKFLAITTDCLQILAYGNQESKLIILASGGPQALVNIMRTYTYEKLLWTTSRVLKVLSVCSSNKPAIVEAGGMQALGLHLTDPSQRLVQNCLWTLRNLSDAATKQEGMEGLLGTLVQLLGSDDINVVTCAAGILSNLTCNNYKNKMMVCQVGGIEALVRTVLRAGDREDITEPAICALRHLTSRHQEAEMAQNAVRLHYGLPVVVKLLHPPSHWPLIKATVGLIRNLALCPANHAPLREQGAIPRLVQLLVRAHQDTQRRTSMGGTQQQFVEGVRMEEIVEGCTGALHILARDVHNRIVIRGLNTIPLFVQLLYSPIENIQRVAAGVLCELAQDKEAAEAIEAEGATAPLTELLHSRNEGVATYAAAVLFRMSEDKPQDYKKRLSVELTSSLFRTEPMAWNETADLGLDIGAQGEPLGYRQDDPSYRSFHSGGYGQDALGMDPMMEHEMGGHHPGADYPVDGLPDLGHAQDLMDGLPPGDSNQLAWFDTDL

[18] = molecular target: T1, Cyclin-dependent kinase 8; assay: Inhibition of CDK8 (unknown origin) by Pro-Qinase assay
MDA-MB-468 [19] = assay: Antitumor activity against human MDA-MB-468 cells xenografted in nude mouse assessed as slower appearance of palpable tumor pretreated with compound at 25 mg/kg, ip administered 5 daily dose followed by tumor injection and monitored every day; assay type: functional, organism-based
[20] = molecular target: T1, Cyclin-dependent kinase 8; assay: Inhibition of human CDK8 (M1 to T360 residues) expressed in bacterial expression system at 2000 nM by KINOMEscan assay relative to control
4T1 = assay: Growth inhibition of mouse 4T1 cells at 0.078 to 10 uM after 5 days by MTT assay; assay type: functional, cell-based; details: dose 0.078-10 µM, time 5.0 day
A549 = assay: Antitumor activity against human A549 cells xenografted in CB-17 SCID mouse assessed as reduction in tumor growth pretreated with compound at 40 mg/kg, ip administered 5 daily dose followed by tumor injection and monitored twice a week starting from 7 days after post tumor injection to 24 days by caliper method; assay type: functional, organism-based; details: time 24.0 day
[21] = molecular target: T1, Cyclin-dependent kinase 8; assay: Inhibition of CDK8 in human HT1080 cells assessed as inhibition of IPTG-inducible p21 induced CMV-GFP expression by Hoechst 33342 staining-based fluorescence assay; assay type: cell-based; details: HT-1080
MDA-MB-468 [22] = assay: Antitumor activity against human MDA-MB-468 cells xenografted in nude mouse assessed as reduction in tumor growth at 40 mg/kg, ip administered daily for 30 days in presence of doxorubicin by caliper method; assay type: functional, organism-based; details: time 30.0 day
MDA-MB-157 = assay: Growth inhibition of human MDA-MB-157 cells after 5 days by MTT assay; assay type: functional, cell-based; details: dose 0.078-10 µM, time 5.0 day
MDA-MB-468 [23] = assay: Antitumor activity against human MDA-MB-468 cells xenografted in mouse assessed as reduction in tumor growth pretreated with compound at 40 mg/kg, ip administered for 3 days followed by tumor injection by caliper method; assay type: functional, organism-based; details: time 3.0 day
[24] = molecular target: Cyclin-dependent kinase 19 (Homo sapiens) (UniProt Q9BWU1); assay: Inhibition of human […] (M1 to N360 residues) expressed in bacterial expression system at 2000 nM by KINOMEscan assay relative to control
[25] = Toxicity in mouse xenografted with human MDA-MB-231 cells assessed as reduction in body weight at 40 mg/kg administered as 5 daily doses; assay type: organism-based; details: in vivo
[26] = Toxicity in BALB/c mouse assessed as decrease in lymphocytes count at 40 mg/kg, ip administered with 5 daily doses and 2 days off and another 5 daily dosing schedule for 12 days; assay type: organism-based; design: scale not given: the % may be the effect or the level left; details: in vivo, 288 h, time 12 day
[27] = Toxicity in BALB/c mouse assessed as decrease in kidney weight at 40 mg/kg, ip administered with 5 daily doses and 2 days off and another 5 daily dosing schedule for 12 days; assay type: organism-based; details: in vivo, 288 h, time 12 day
[28] = AUC in rat at 40 mg/kg, ip; assay type: ADME, organism-based; design: dose 40 mg/kg; details: in vivo
[29] = Solubility of compound in water at 50 mM after 30 mins; assay type: physicochemical; details: buffer, 0.5 h, 50000 µM
[30] = molecular target: Cyclin-dependent kinase 9 (Homo sapiens, UniProt P50750); assay: Inhibition of CDK9 (unknown origin)
[31] = Toxicity in BALB/c mouse assessed as decrease in brain weight at 40 mg/kg, ip administered with 5 daily doses and 2 days off and another 5 daily dosing schedule for 12 days; assay type: organism-based; details: in vivo, 288 h, time 12 day
MDA-MB-468 [32] = assay: Antitumor activity against human MDA-MB-468 cells xenografted in nude mouse assessed as reduction in tumor growth at 4 mg/kg, ip administered daily for 30 days by caliper method; assay type: functional, organism-based; details: time 30.0 day
MDA-MB-231 [33] = assay: Antitumor activity against human MDA-MB-231 cells xenografted in SCID mouse assessed as reduction in tumor growth at 1 mg/kg, ip administered as single dose; assay type: functional, organism-based
[34] = Toxicity in mouse xenografted with human MDA-MB-231 cells assessed as reduction in body weight at 1 mg/kg administered as single dose; assay type: organism-based; design: scale not given: the % may be the effect or the level left; details: in vivo
MDA-MB-468 [35] = assay: Antitumor activity against human MDA-MB-468 cells xenografted in nude mouse assessed as invasive tumor growth at 4 mg/kg, ip administered daily for 30 days by H and E staining based histological analysis; assay type: functional, organism-based; details: time 30.0 day

T1 sequence (P49336 whole entry): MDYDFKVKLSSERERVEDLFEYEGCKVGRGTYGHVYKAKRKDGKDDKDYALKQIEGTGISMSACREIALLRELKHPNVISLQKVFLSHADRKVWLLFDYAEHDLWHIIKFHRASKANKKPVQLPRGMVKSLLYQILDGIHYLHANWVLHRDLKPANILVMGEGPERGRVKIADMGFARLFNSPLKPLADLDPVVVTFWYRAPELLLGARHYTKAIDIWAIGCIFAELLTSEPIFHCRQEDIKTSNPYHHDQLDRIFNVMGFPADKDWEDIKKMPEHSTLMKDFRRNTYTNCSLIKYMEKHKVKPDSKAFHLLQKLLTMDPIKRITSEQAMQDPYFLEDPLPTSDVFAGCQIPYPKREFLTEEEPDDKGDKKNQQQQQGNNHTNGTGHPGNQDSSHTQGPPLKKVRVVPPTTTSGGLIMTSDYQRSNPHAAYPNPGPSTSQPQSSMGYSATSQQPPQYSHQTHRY
Chain of Cyclin-dependent kinase 19 (Homo sapiens) (Q9BWU1 whole entry, the tested form may be a part): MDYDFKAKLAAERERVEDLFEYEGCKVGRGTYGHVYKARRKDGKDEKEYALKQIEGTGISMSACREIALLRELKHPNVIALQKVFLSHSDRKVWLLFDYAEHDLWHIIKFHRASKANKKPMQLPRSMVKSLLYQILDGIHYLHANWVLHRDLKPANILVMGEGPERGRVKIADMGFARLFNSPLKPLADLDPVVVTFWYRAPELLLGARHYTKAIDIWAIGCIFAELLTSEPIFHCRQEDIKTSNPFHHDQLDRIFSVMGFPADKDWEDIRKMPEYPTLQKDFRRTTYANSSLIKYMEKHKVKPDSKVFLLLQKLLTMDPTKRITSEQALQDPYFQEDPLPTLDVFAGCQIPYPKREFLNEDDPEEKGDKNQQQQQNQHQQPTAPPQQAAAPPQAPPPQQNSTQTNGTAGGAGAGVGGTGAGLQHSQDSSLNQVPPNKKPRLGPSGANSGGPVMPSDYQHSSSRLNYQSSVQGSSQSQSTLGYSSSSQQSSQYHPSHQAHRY
Chain of Cyclin-dependent kinase 9 (P50750 whole entry): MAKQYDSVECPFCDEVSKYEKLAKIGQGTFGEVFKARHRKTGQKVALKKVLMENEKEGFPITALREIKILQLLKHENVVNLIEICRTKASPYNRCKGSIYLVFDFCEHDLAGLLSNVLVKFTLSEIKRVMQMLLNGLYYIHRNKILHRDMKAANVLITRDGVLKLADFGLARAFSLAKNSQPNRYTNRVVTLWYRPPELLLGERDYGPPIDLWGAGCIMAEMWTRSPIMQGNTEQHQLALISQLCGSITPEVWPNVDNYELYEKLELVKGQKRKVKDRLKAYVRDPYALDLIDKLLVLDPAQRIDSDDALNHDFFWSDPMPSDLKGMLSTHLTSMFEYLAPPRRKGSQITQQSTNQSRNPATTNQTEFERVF

- solubility [1]: Soluble
SMILES: CN1CCN(C(=O)c2cc(CNc3ncnc4ccc(C#N)cc34)ccc2Cl)CC1

- solubility [2]: Soluble
SMILES: CN(C)CCNC(=O)c1ccc(CCNc2ncnc3ccc(C#N)cc23)cc1

- solubility [2]: Soluble
SMILES: CN(C)C(=O)c1ccc(CCNc2ncnc3ccc(C#N)cc23)cc1

- solubility [29]: Soluble
SMILES: N#Cc1ccc2ncnc(NCc3ccc(Cl)c(C(=O)N4CCOCC4)c3)c2c1

- solubility [2]: Soluble
SMILES: CN1CCN(C(=O)c2ccc(CCNc3ncnc4ccc(C#N)cc34)cc2)CC1

Continued, compound first:

SMILES: N#Cc1ccc2ncnc(NCCc3ccc4cc(C(=O)N5CCOCC5)ccc4c3)c2c1
- solubility [1]: Soluble

SMILES: N#Cc1ccc2ncnc(NCCc3ccc(C(=O)N4CCC(N)C4)cc3)c2c1 (stereo not given)
- solubility [2]: Soluble

SMILES: COCCNC(=O)c1ccc(CCNc2ncnc3ccc(C#N)cc23)cc1
- solubility [2]: Soluble

SMILES: N#Cc1ccc2ncnc(NCCc3ccc(C(=O)N4CCOCC4)cc3)c2c1
- solubility [2]: Soluble

SMILES: CN1CCN(C(=O)c2ccc3cc(CCNc4ncnc5ccc(C#N)cc45)ccc3c2)CC1 [SENEXIN B]
- Activity [3]: Non-Toxic
- Activity (MDA-MB-468 [4]): Active
- Activity (MDA-MB-231 [5]): Active
- Kd [6]: 140 nM
- growth inhibition (GI) (MDA-MB-468 [7]): Dose-Dependent Effect
- Activity [8]: Non-Toxic
- concentration [9]: 50 µM
- Activity (MDA-MB-468 [10]): Active
- Activity [11]: 20%
- Activity (MDA-MB-468 [12]): Active
- Activity (MDA-MB-231 [13]): Active
- Activity [14]: Non-Toxic
- Activity [15]: Non-Toxic
- Activity (MDA-MB-468 [16]): Active
- inhibition [17]: Dose-Dependent Effect
- IC50 [18]: 24 nM
- Activity (MDA-MB-468 [19]): Active
- inhibition [20]: 97.8%
- growth inhibition (GI) (4T1): inactive
- Activity (A549): Active
- inhibition [21]: Active
- Activity (MDA-MB-468 [22]): Active
- growth inhibition (GI) (MDA-MB-157): Dose-Dependent Effect
- Activity (MDA-MB-468 [23]): Active
- inhibition [24]: 98.6%
- Activity [25]: Non-Toxic
- Activity [26]: 25%
- Activity [27]: Non-Toxic
- AUC [28]: 14100 ng·h/mL
- solubility [29]: Soluble
- Kd [30]: Not Active
- Activity [31]: Non-Toxic

SMILES: COc1cccc2c1C(=O)c1c(O)c3c(c(O)c1C2=O)C[C@@](O)(C(=O)CO)C[C@@H]3O[C@H]1C[C@H](N)[C@H](O)[C@H](C)O1 [DOXORUBICIN]
- Activity (MDA-MB-468 [32]): Active
- Activity (MDA-MB-231 [33]): Active
- Activity [34]: 15%
- Activity (MDA-MB-468 [35]): Active
